What was measured:
Type in all cases: cell-based
PAR2 (HT-29 cells) [1] = target: T1, PAR2 (HT-29 cells) (Homo sapiens, UniProt P55085); test: Ca FLIPR TETRA assay, ANTAGONIST mode, activator 3.1 U/mL trypsin; conditions: HT-29 cells; activator 3.1 U/mL trypsin; Method A: maximal concentration of antagonist 0.1, 1 or 2 μM
T1 construct: host or cells: HT-29
T1 sequence (P55085 26-397): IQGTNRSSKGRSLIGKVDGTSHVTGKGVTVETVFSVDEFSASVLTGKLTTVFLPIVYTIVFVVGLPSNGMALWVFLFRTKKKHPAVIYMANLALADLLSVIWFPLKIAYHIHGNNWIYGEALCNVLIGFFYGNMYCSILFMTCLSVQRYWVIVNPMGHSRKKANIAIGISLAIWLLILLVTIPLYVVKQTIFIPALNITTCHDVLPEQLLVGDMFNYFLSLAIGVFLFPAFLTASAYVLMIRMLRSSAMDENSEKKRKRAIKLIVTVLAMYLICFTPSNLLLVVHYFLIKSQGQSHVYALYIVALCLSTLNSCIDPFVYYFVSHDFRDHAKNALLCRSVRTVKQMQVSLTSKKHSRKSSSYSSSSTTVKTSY
Summary of the method: (§1)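 Inhibition of agonist-evoked calcium signals was measured in human HT-29 colon cells cultured overnight in 1% FBS McCoy's medium. Test compounds preincubated 30 min at r.t.; activators at final concentrations as stated for each readout.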

[2] = tested on: UTP-stimulated Ca2+ response in HT-29 cells; test: Ca FLIPR TETRA assay, ANTAGONIST mode, activator 0.6 μM UTP; conditions: HT-29 cells, activator 0.6 μM UTP
Summary of the method: as §1

[3] = tested on: Thrombin-stimulated Ca2+ response in HT-29 cells; test: Ca FLIPR TETRA assay, ANTAGONIST mode, activator 1 U/mL Thrombin; conditions: HT-29 cells, activator 1 U/mL Thrombin
Summary of the method: as §1

PAR2 (HT-29 cells) [4] = target: T1, PAR2 (HT-29 cells); test: Ca FLIPR TETRA assay, ANTAGONIST mode, activator 8 μM SLIGKV; conditions: HT-29 cells; activator 8 μM SLIGKV; Method A: maximal concentration of antagonist 0.1, 1 or 2 μM
Summary of the method: as §1

SMILES | IC50 (PAR2 (HT-29 cells) [1]) [nM] | IC50 ([2]; Homo sapiens) [nM] | IC50 ([3]; Homo sapiens) [nM] | IC50 (PAR2 (HT-29 cells) [4]) [nM] | IC50 [2] [nM] | IC50 [3] [nM]
CC(C)(C)c1cc(-c2ccc(Cl)cc2)nc2cc(C(=O)N3CCN(c4cncc(C(=O)O)n4)CC3(C)C)oc12 [Example I-463] | 0.9 | 860 | 1010 | 0.7 | – | –
CC1(C)CCC(c2cc(C(C)(C)C)c3oc(C(=O)N4CCN(c5cncc(C(=O)O)n5)CC4(C)C)cc3n2)CC1 [Example I-464] | 0.9 | 610 | 810 | 0.5 | – | –
Cc1nc(N2CCN(C(=O)c3cc4nc(C5CCC(C)(C)CC5)cc(C(C)(C)C)c4o3)C(C)(C)C2)ncc1C(=O)O [Example I-465] | 1.2 | 960 | > 1010 | 0.5 | – | –
Cc1nc(N2CCN(C(=O)c3cc4nc(-c5ccc(Cl)c(F)c5)cc(C(C)(C)C)c4o3)C(C)(C)C2)ncc1C(=O)O [Example I-466] | 0.4 | 995 | 1150 | 0.2 | – | –
CCS(=O)(=O)NCC(=O)N1CCN(C(=O)c2cc3nc(-c4ccc(Cl)cc4)cc(C(C)(C)C)c3o2)C(C)(C)C1 [Example I-467] | 7.7 | > 2000 | > 2000 | 4.3 | – | –
CCS(=O)(=O)NCC(=O)N1CCN(C(=O)c2cc3nc(-c4ccc(Cl)c(F)c4)cc(C(C)(C)C)c3o2)C(C)(C)C1 [Example I-468] | 4.7 | > 2000 | > 2000 | 2.5 | – | –
CC(C)(C)c1cc(-c2ccc(Cl)c(F)c2)nc2cc(C(=O)N3CCN(c4cncc(C(=O)O)n4)CC3(C)C)oc12 [Example I-469] | 0.6 | > 2000 | > 2000 | 0.3 | – | –
CC(C)(C)c1cc(-c2ccc(Cl)c(F)c2)nc2cc(C(=O)N3CCN(c4nccnc4C(=O)O)CC3(C)C)oc12 [Example I-470] | 6.2 | > 2000 | > 2000 | 5.7 | – | –
CC(C)(C)c1cc(-c2ccc(Cl)cc2)nc2cc(C(=O)N3CCN(c4ccc(C(=O)O)nn4)CC3(C)C)oc12 [Example I-471] | 1.4 | > 2000 | > 2000 | 1.1 | – | –
CC(C)(C)c1cc(-c2ccc(Cl)c(F)c2)nc2cc(C(=O)N3CCN(C(=O)[C@@H]4CCS(=O)(=O)N4)CC3(C)C)oc12 [Example I-472] | 20 | > 2000 | > 2000 | 33.9 | – | –
CC(C)(C)c1cc(-c2ccc(Cl)c(F)c2)nc2cc(C(=O)N3CCN(C(=O)[C@H]4CCS(=O)(=O)N4)CC3(C)C)oc12 [Example I-473] | 27.7 | > 2000 | > 2000 | 18 | – | –
CC(C)(C)c1cc(-c2ccc(Cl)cc2)nc2cc(C(=O)N3CCN(C(=O)[C@@H]4CCS(=O)(=O)N4)CC3(C)C)oc12 [Example I-474] | 53 | > 2000 | > 2000 | 39 | – | –
CC(C)(C)c1cc(-c2ccc(Cl)cc2)nc2cc(C(=O)N3CCN(C(=O)[C@H]4CCS(=O)(=O)N4)CC3(C)C)oc12 [Example I-475] | 34 | > 2000 | > 2000 | 26 | – | –
Cc1nc(N2CCN(C(=O)c3cc4nc(-c5ccc(Cl)c(F)c5)cc(C(C)(C)C)c4o3)C(C)(C)C2)oc1C(=O)O [Example I-476] | 1.6 | > 500 | > 500 | 0.7 | – | –
CC(C)(C)c1cc(-c2ccc(Cl)cc2)nc2cc(C(=O)N3CCN(c4cncc(C(=O)O)c4)CC3(C)C)oc12 [Example I-477] | 1.8 | > 500 | > 500 | 0.7 | – | –
Cc1nc(N2CCN(C(=O)c3cc4nc(-c5ccc(Cl)cc5)cc(C(C)(C)C)c4o3)C(C)(C)C2)oc1C(=O)O [Example I-478] | 4.1 | > 500 | > 500 | 1.9 | – | –
CC(C)(C)c1cc(-c2ccc(Cl)cc2)nc2cc(C(=O)N3CCN(c4cccc(C(=O)O)n4)CC3(C)C)oc12 [Example I-479] | 0.3 | 1030 | 1500 | 0.2 | – | –
CC(C)(C)c1cc(-c2ccc(Cl)cc2)nc2cc(C(=O)N3CCN(c4nc(C(=O)O)co4)CC3(C)C)oc12 [Example I-481] | 0.4 | > 1250 | > 1250 | 0.3 | – | –
COc1ccc(N2CCN(C(=O)c3cc4nc(-c5ccc(Cl)c(F)c5)cc(C(C)(C)C)c4o3)C(C)(C)C2)nc1C(=O)O [Example I-482] | 0.2 | 1200 | > 2000 | 0.2 | – | –
CC(C)(C)c1cc(-c2ccc(Cl)cc2)nc2cc(C(=O)N3CCN(c4ncccn4)C(=O)C3(C)C)oc12 [Example I-483] | 2.8 | > 2000 | > 2000 | 3.6 | – | –
CC(C)(CN1CCN(C(=O)c2cc3nc(-c4ccc(Cl)c(F)c4)cc(C(C)(C)C)c3o2)C(C)(C)C1=O)C(=O)O [Example I-484] | 1.1 | > 1100 | > 1100 | 0.5 | – | –
Cc1ccnc(N2CCN(C(=O)c3cc4nc(-c5ccc(Cl)c(F)c5)cc(C(C)(C)C)c4o3)C(C)(C)C2)c1C(=O)O [Example I-485] | 18 | > 2000 | > 2000 | 16 | – | –
CC1(C)CCC(c2cc(C(C)(C)C)c3oc(C(=O)N4CCNC(=O)CC4(C)C)cc3n2)CC1 [Example I-486] | 70 | – | – | 42 | > 2000 | > 2000
Cc1ccc(N2CCN(C(=O)c3cc4nc(-c5ccc(Cl)c(F)c5)cc(C(C)(C)C)c4o3)C(C)(C)C2)nc1C(=O)O [Example I-487] | 0.3 | > 2000 | > 2000 | 0.2 | – | –
Cc1ccc(N2CCN(C(=O)c3cc4nc(C5CCC(C)(C)CC5)cc(C(C)(C)C)c4o3)C(C)(C)C2=O)nc1C(=O)O [Example I-488] | 14 | > 2000 | > 2000 | 6.5 | – | –
CC1(C)CCC(c2cc(C(C)(C)C)c3oc(C(=O)N4CCC(=O)NCC4(C)C)cc3n2)CC1 [Example I-489] | 270 | > 2000 | > 2000 | 115 | – | –
CC(C)(C)c1cc(-c2ccc(Cl)c(F)c2)nc2cc(C(=O)N3CCN(c4cc(C(=O)O)ncn4)CC3(C)C)oc12 [Example I-490] | 3.9 | > 2000 | > 2000 | 3.1 | – | –
CC(C)(C)c1cc(-c2ccc(Cl)c(F)c2)nc2cc(C(=O)N3CCN(c4ccncc4C(=O)O)CC3(C)C)oc12 [Example I-491] | 230 | > 2000 | > 2000 | 190 | – | –
Cc1cnc(N2CCN(C(=O)c3cc4nc(-c5ccc(Cl)c(F)c5)cc(C(C)(C)C)c4o3)C(C)(C)C2)c(C(=O)O)c1 [Example I-492] | 7.3 | > 2000 | > 2000 | 7.5 | – | –
CC(C)(C)c1cc(-c2ccc(Cl)cc2)nc2cc(C(=O)N3CCN(C(=O)CC4(C(=O)O)CCCC4)CC3(C)C)oc12 [Example I-493] | 0.4 | > 2000 | > 2000 | 0.4 | – | –

— US20180057505A1, “BICYCLIC HETEROARYL COMPOUNDS USEFUL AS INHIBITORS OF THE PAR-2 SIGNALING PATHWAY” (VERTEX PHARMACEUTICALS INCORPORATED, priority 2015, published 2018)
